# In ChEMBL document CHEMBL1667829, “Analysis of β-amino alcohols as inhibitors of the potential anti-tubercular target N-acetyltransferase” (Bioorg Med Chem Lett, 2011):
# Active and inactive are the calls of the source. The calls are words filed in the database; no cut-off is given here.
# Columns and labels:
# Mycobacterium marinum [1] = assay: Inhibition of Mycobacterium marinum NAT using isoniazed substrate at 30 uM by acetyl-coA hydrolysis assay
# [2] = Inhibition of Mycobacterium marinum NAT using isoniazed substrate by acetyl-coA hydrolysis assay
# Mycobacterium marinum [3] = assay: Antimicrobial activity against Mycobacterium marinum at 100 ug/ml; assay type: functional, organism-based
# [4] = target: T1, Arylamine N-acetyltransferase (Mycolicibacterium smegmatis, UniProt O86309); assay: Inhibition of Mycobacterium smegmatis NAT using isoniazed substrate by acetyl-coA hydrolysis assay
# T1 sequence (O86309 whole entry): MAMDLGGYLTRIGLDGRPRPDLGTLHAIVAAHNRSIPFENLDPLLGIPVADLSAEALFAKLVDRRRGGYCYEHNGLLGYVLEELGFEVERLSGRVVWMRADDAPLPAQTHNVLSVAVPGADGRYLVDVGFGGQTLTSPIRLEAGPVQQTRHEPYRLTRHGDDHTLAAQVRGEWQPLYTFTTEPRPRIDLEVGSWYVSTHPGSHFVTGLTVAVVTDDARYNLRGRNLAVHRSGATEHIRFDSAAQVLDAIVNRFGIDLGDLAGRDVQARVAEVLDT
# [5] = target: T2, Arylamine N-acetyltransferase (Pseudomonas aeruginosa (strain ATCC 15692 / PAO1 / 1C / PRS 101 / LMG12228), UniProt Q9HUY3); assay: Inhibition of Pseudomonas aeruginosa NAT using isoniazed substrate by acetyl-coA hydrolysis assay
# T2 sequence (Q9HUY3 whole entry): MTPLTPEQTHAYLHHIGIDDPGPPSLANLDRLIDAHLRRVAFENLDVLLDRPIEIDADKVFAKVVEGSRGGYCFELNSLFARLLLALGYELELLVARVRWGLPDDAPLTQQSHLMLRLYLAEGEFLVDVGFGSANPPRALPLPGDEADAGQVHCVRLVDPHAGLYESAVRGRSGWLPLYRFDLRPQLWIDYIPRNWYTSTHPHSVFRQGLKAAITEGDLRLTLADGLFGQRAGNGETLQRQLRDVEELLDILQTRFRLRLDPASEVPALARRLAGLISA
# [6] = Inhibition of Mycobacterium marinum NAT using 5-aminosalicylate substrate by acetyl-coA hydrolysis assay
# Mycobacterium marinum [7] = assay: Antimicrobial activity against Mycobacterium marinum at 80 ug/ml; assay type: functional, organism-based
# [8] = target: T1, Arylamine N-acetyltransferase; assay: Inhibition of Mycobacterium smegmatis NAT using 5-aminosalicylate substrate by acetyl-coA hydrolysis assay
# [9] = target: T2, Arylamine N-acetyltransferase; assay: Inhibition of Pseudomonas aeruginosa NAT using 5-aminosalicylate substrate by acetyl-coA hydrolysis assay
# [10] = system: Mycobacterium tuberculosis; assay: Antimicrobial activity against Mycobacterium tuberculosis at 50 ug/ml relative to control; assay type: functional
# [11] = Inhibition of Mycobacterium marinum NAT using hydralazine substrate by acetyl-coA hydrolysis assay
structure (smiles),measurement,setting,value
CC1(C)NC(=O)N(CC(O)COc2cccc(-c3ccccc3)c2)C1=O (configuration not stated),inhibition,Mycobacterium marinum [1],6%
Cc1ccccc1OCC(O)CN1C(=O)NC(C)(C)C1=O (configuration not stated),inhibition,Mycobacterium marinum [1],0.5%
CC1(C)NC(=O)N(CC(O)COc2ccccc2-c2ccccc2)C1=O (configuration not stated),inhibition,Mycobacterium marinum [1],24%
CC1(C)NC(=O)N(CC(O)COc2ccccc2F)C1=O (configuration not stated),inhibition,Mycobacterium marinum [1],0%
O=C1CNC(=O)N1CC(O)COc1ccccc1 (configuration not stated),inhibition,Mycobacterium marinum [1],0%
CC1(C)NC(=O)N(CC(O)COc2ccccc2[N+](=O)[O-])C1=O (configuration not stated),inhibition,Mycobacterium marinum [1],4%
CC1(C)NC(=O)N(CC(O)COc2ccc(C3CCCC3)cc2)C1=O (configuration not stated),IC50,[2],> 50 µM
same,Activity,Mycobacterium marinum [3],inactive
same,IC50,[4],> 50 µM
same,IC50,[5],> 50 µM
same,IC50,[6],> 50 µM
same,inhibition,Mycobacterium marinum [1],0%
same,Activity,Mycobacterium marinum [7],inactive
same,IC50,[8],> 50 µM
same,IC50,[9],> 50 µM
O=C1NC(c2ccccc2)C(=O)N1CC(O)COc1ccccc1 (configuration not stated),inhibition,Mycobacterium marinum [1],0%
CC1(C)NC(=O)N(CC(O)COc2ccccc2Br)C1=O (configuration not stated),inhibition,Mycobacterium marinum [1],24%
CC1(C)NC(=O)N(CC(O)COc2ccc(-c3ccccc3)cc2)C1=O (configuration not stated),inhibition,Mycobacterium marinum [1],8%
CC1(C)NC(=O)N(CC(O)COc2ccccc2-c2cccc3ccccc23)C1=O (configuration not stated),inhibition,Mycobacterium marinum [1],28%
CC1(C)NC(=O)N(CC(O)COc2ccccc2C2CCCC2)C1=O (configuration not stated),IC50,[4],9.4 µM
same,inhibition at 50 µg/mL,[10],20%
same,IC50,[5],37 µM
same,IC50,[6],33.1 µM
same,inhibition,Mycobacterium marinum [1],58%
same,IC50,[11],1.5 µM
same,IC50,[8],17.7 µM
same,IC50,[9],16.2 µM
